Data as given in patent publication US20240294504A1, “COMPOUNDS, COMPOSITIONS, AND METHODS FOR INDUCING ANTIMICROBIAL INTRACELLULAR ACTIVITY AND FOR PREVENTING AND TREATING MICROBIAL INFECTIONS” (The Broad Institute, Inc., priority 2021, published 2024).
Where “and” joins values, the source holds several entries; their conditions need not be identical. Equal entries are not always repeated. Entries after “also recorded” stand apart in the source; their conditions may differ. Where two headings read alike, the source gives them in different places.

Assays:
[1] = system: intracellular K. pneumoniae; assay: Intracellular survival of K. pneumoniae (RB120) in bladder epithelial cells (gentamicin protection assay, CFUs from plated cell lysates); format: cell-based, Klebsiella pneumoniae; settings: for EC50: 24 hours of treatment, bladder epithelial cells, read-out: EC50 of dose-dependent killing / antimicrobial activity against intracellular K. pneumoniae
Gram-positive bacteria = settings: cited from earlier work
[2] = system: extracellular K. pneumoniae; format: cell-based, Klebsiella pneumoniae
interferon beta response = assay: Interferon beta response in infected bladder epithelial cells; format: cell-based, human; design: dose or concentration left out as unconfirmed; settings: 24 hours (24 to 48 hours post infection)
Description: FIG. 7. […] Infected cells were treated for 24 hours with […] (S)-crizotinib, AY9944 or DMSO control from 24 to 48 hours post infection.

tumor growth = settings: mouse, in vivo; cited from earlier work
[3] = system: intracellular K. pneumoniae; assay: Intracellular survival of K. pneumoniae in human lung epithelial cell line A549; format: cell-based, Klebsiella pneumoniae; settings: 10 μM, over 2 hours
[4] = system: Pseudomonas aeruginosa (PAO1); assay: Intracellular survival of P. aeruginosa in bladder epithelial cells; format: cell-based; settings: 10 μM, 24 hours
[5] = system: K. pneumoniae ST258 expressing mNeon (UCI_38DwbaP_mNeon); assay: Confocal microscopy of fluorescent Klebsiella-containing vacuoles (LAMP1) in bladder epithelial cells; format: cell-based, Klebsiella pneumoniae; settings: 10 μM, 24 hours (24 to 48 hours post infection)
[6] = system: intracellular carbapenem-tolerant K. pneumoniae; settings: primary screen 5 μM, retest 2.5 to 20 μM
Description: Bladder epithelial cells were infected with lux-expressing K. pneumoniae and incubated with the carbapenem antibiotic meropenem (see FIG. 1A), after killing extracellular bacteria with a high dose of gentamicin shortly after the infection. Intracellular survival was assessed by determining the luminescence intensity of intracellular bacteria that had been liberated by host cell lysis and outgrown in LB medium for 7 hours. […] Mean and SD of Z-factors of n=32 plates from 4 batches (independent outgrowth events) shown. […] Partial hits and hits involving known antibiotics were excluded. Hits from the primary screen were retested in a secondary screen at different concentration.

SARS-COV-2 = SARS-COV-2 infection of veroE6 kidney epithelial cells (immunofluorescence microscopy); format: cell-based
[7] = system: intracellular Salmonella Typhimurium; assay: Intracellular survival of Salmonella Typhimurium in host cells; format: cell-based
[8] = system: uropathogenic Escherichia coli (UPEC, UTI89); assay: Intracellular survival of UPEC in bladder epithelial cells; format: cell-based; settings: 10 μM, 4 hours
cancer cells = settings: cited from earlier work
[9] = system: post-lanosterol cholesterol biosynthesis pathway; assay: LC-MS based lipidomics of sterol intermediates in host cells; format: cell-based, human; settings: 10 μM
Description: FIGS. 17A-17C. LC-MS based lipidomics evaluation of effect of other available post-lanosterol cholesterol biosynthesis inhibitors on infection. (FIG. 17A) Post-lanosterol pathway. (FIG. 17B) Effect of 10 μM AY9944 or 10 μM (S)-crizotinib after 2 hours of treatment (FIG. 17C) or after 24 hours of treatment.

[10] = 24 h treatment of infected bladder cells
[11] = 10 μM, after 24 hours of treatment
[12] = Klebsiella pneumoniae, Epithelial cell

## Nc1nc(NC2CC2)cc(-c2cccc(Cl)c2Cl)n1 [TH588]
Bladder epithelial cells; [10]
  host cell cytotoxicity against bladder epithelial cells: dose dependent toxicity
[1]; 10 μM
  intracellular antibacterial activity after 4 hours of treatment: did not display intracellular antibacterial activity; also recorded: did not induce intracellular antibacterial activity
  intracellular antibacterial activity after 24 hours of treatment: modest antibacterial activity

## C[C@@H](Oc1cc(-c2cnn(C3CCNCC3)c2)cnc1N)c1c(Cl)ccc(F)c1Cl [crizotinib]
Gram-positive bacteria
  concentration for growth inhibition of Gram-positive bacteria: > 20 µM

## CC(C)Cn1cnc2c(N)nc3ccccc3c21 [imiquimod]
[1]; after 24 hours of treatment
  anti-infective / antimicrobial activity of TLR7 agonist: moderate anti-infective activity; also recorded: Modest antimicrobial activity

## C[C@H](Oc1cc(-c2cnn(C3CCNCC3)c2)cnc1N)c1c(Cl)ccc(F)c1Cl [(S)-crizotinib]
[2]
  antibacterial activity against K. pneumoniae grown in axenic medium: did not display antibacterial activity
Interferon beta response
  interferon beta response in bladder epithelial cells infected with K. pneumoniae: do not induce an interferon beta response
Tumor growth
  tumor growth in mice: suppress tumor growth in mice
[3]
  antiinfective activity against intracellular K. pneumoniae in A549 lung epithelial cells: rapid antiinfective activity
Bladder epithelial cells
  host cell cytotoxicity against bladder epithelial cells: did not display cytotoxicity
[4]
  antibacterial activity in bladder epithelial cells infected with Pseudomonas aeruginosa: antibacterial activity
[5]
  reduction in the median fluorescence intensity of mNeon-expressing Klebsiella in LAMP1 containing compartments: 33%
  reduction of detected Klebsiella containing compartments: 63%
[6]
  outcome in high-throughput screen: top hits
SARS-COV-2; veroE6, MOI 0.1, 24 h treatment
  antiviral activity in epithelial cells infected with SARS-COV-2: induced antiviral activity in epithelial cells infected with SARS-COV-2 in a dose dependent manner
[7]; HeLa epithelial cells, 10 μM, 20 hours (4 to 24 hours post infection)
  antibacterial activity in cells infected with Salmonella Typhimurium: antibacterial activity
[1]; 10 μM, 15 minutes
  killing % of the intracellular population within 15 minutes: 82% and 80%
[1]; 10 μM, 2 hours
  % of the intracellular population killed after 2 hours of treatment: 99%
[1]; 10 μM, 2 hours, presence vs absence of gentamicin
  effect of removal of gentamicin from the culture medium on antibacterial activity: had no impact on the potent antibacterial activity
[1]; [11]
  killing % of the intracellular K. pneumoniae population: 99%
[1]; 4 mg/ml ciprofloxacin for 14 hours, then (S)-crizotinib for 6 hours in the presence of ciprofloxacin
  activity against intracellular ciprofloxacin-tolerant K. pneumoniae persisters: dose-dependent antibacterial activity
[1]; 2 hours, absence of gentamicin, supernatants
  increase of extracellular bacteria (exocytosis of Klebsiella-containing compartments): did not result in a significant increase of extracellular bacteria
[1]
  EC50: 1700 nM
[8]
  antibacterial activity in bladder epithelial cells infected with UPEC: antibacterial activity
Cancer cells
  inhibits colony formation of cancer cells: low micromolar concentrations

## CNc1cc(-c2cccc(Cl)c2Cl)nc(N)n1 [TH287]
Bladder epithelial cells; [10]
  host cell cytotoxicity against bladder epithelial cells: dose dependent toxicity
[1]; 10 μM
  intracellular antibacterial activity after 4 hours of treatment: did not display intracellular antibacterial activity
  intracellular antibacterial activity after 24 hours of treatment: modest antibacterial activity

## C[C@@H](O)[C@H]1C(=O)N2C(C(=O)O)=C(S[C@@H]3CN[C@H](C(=O)N(C)C)C3)[C@H](C)[C@H]12 [meropenem]
[7]; meropenem 10 μg/ml, after 20 hours of treatment
  killed % of intracellular Salmonella Typhimurium population: 87%
[1]; meropenem 10 μg/ml (150 fold of MIC), 20 hours
  impact on the viability of intracellular K. pneumoniae: no impact; also recorded: ineffective

## Clc1ccccc1CNCC1CCC(CNCc2ccccc2Cl)CC1 (centres unmarked) [AY 9944]
[2]
  antibacterial activity against K. pneumoniae grown in axenic medium: no host cell toxicity or antimicrobial activity in axenic medium
Interferon beta response
  interferon beta response in bladder epithelial cells infected with K. pneumoniae: do not induce an interferon beta response
Bladder epithelial cells; [10]
  host cell cytotoxicity against bladder epithelial cells: no host cell toxicity
[6]
  outcome in high-throughput screen: hit
SARS-COV-2; Severe acute respiratory syndrome coronavirus 2, Vero C1008, read-out: EC50 of antiviral activity in SARS-COV-2 infections
  EC50: 1000 nM
[1]; 10 uM, 60 minutes
  killed % of the intracellular population in 60 minutes: approx. 80%
[1]; [12]
  EC50: 940 nM
[9]; 2 hour treatment
  FF-MAS, fold increased: 4.2 fold
  dehydrodesmosterol, fold increased: 1.2 fold
  lanosterol, fold increased: 1.2 fold
[9]; 24 hour treatment
  FF-MAS, fold increased: 11.9 fold
  dehydrodesmosterol, fold increased: 2.9 fold
  lanosterol, fold increased: 3 fold

## C[C@@H](Oc1cc(-c2cnn(C3CCNCC3)c2)cnc1N)c1c(Cl)ccc(F)c1Cl [(R)-crizotinib]
Bladder epithelial cells
  host cell cytotoxicity against bladder epithelial cells: displayed host cell cytotoxicity in a dose-dependent manner
[6]
  outcome in high-throughput screen: top hits
[1]; [11]
  killing % of the intracellular K. pneumoniae population: 99%
[1]; [12]
  EC50: 1100 nM
